How the values were obtained:
Assay type in all cases: in vivo
[1] = tested on: Diamond Back Moth (Plutella xylostella); assay: Diamond back moth leaf-dip test; conditions: cabbage leaves dipped, 3rd instar larvae, 72 hours after treatment, read-out: mortality in comparison with untreated controls
Experimental: B.1 Diamond Back Moth (Plutella xylostella)
The active compound was dissolved at the desired concentration in a mixture of 1:1 (vol:vol) distilled water:aceteone. Surfactant (Kinetic HV) was added at a rate of 0.01% (vol/vol). The test solution was prepared at the day of use.
Leaves of cabbage were dipped in test solution and air-dried. Treated leaves were placed in petri dishes lined with moist filter paper and inoculated with ten 3rd instar larvae. Mortality was recorded 72 hours after treatment. Feeding damages were also recorded using a scale of 0-100%.

[2] = tested on: Green Peach Aphid (Myzus persicae); assay: Green peach aphid systemic test on artificial diet; conditions: 72 h, adult aphids on treated artificial diet, 3 days, read-out: mortality in comparison with untreated controls
Excerpt: B.2 Green Peach Aphid (Myzus persicae)
For evaluating control of green peach aphid (Myzus persicae) through systemic means the test unit consisted of 96-well-microtiter plates containing liquid artificial diet under an artificial membrane.
The compounds were formulated using a solution containing 75% v/v water and 25% v/v DMSO. Different concentrations of formulated compounds were pipetted into the aphid diet, using a custom built pipetter, at two replications.
After application, 5-8 adult aphids were placed on the artificial membrane inside the microtiter plate wells. The aphids were then allowed to suck on the treated aphid diet and incubated at about 23±1° C. and about 50±5% relative humidity for 3 days. Aphid mortality and fecundity was then visually assessed.

[3] = tested on: Vetch Aphid (Megoura viciae); assay: Vetch aphid broad bean leaf disk test; conditions: foliar, 120 h, sprayed leaf disks, adult aphids, 5 days, read-out: mortality in comparison with untreated controls
Experimental: B.3 Vetch Aphid (Megoura viciae)
For evaluating control of vetch aphid (Megoura viciae) through contact or systemic means the test unit consisted of 24-well-microtiter plates containing broad bean leaf disks.
The compounds were formulated using a solution containing 75% v/v water and 25% v/v DMSO. Different concentrations of formulated compounds were sprayed onto the leaf disks at 2.5 μl, using a custom built micro atomizer, at two replications.
After application, the leaf disks were air-dried and 5-8 adult aphids placed on the leaf disks inside the microtiter plate wells. The aphids were then allowed to suck on the treated leaf disks and incubated at about 23±1° C. and about 50±5% relative humidity for 5 days. Aphid mortality and fecundity was then visually assessed.

[4] = tested on: Tobacco Budworm (Heliothis virescens); assay: Tobacco budworm insect diet microtiter test; conditions: 120 h, egg and larval mortality on sprayed insect diet, 5 days, read-out: mortality in comparison with untreated controls
Experimental: B.4 Tobacco Budworm (Heliothis virescens)
For evaluating control of tobacco budworm (Heliothis virescens) the test unit consisted of 96-well-microtiter plates containing an insect diet and 15-25 H. virescens eggs.
The compounds were formulated using a solution containing 75% v/v water and 25% v/v DMSO. Different concentrations of formulated compounds were sprayed onto the insect diet at 10 μl, using a custom built micro atomizer, at two replications.
(§1) After application, microtiter plates were incubated at about 28±1° C. and about 80±5% relative humidity for 5 days. Egg and larval mortality was then visually assessed.

[5] = tested on: Boll Weevil (Anthonomus grandis); assay: Boll weevil insect diet microtiter test; conditions: 120 h, egg and larval mortality on sprayed insect diet, 5 days, read-out: mortality in comparison with untreated controls
Experimental: B.5 Boll Weevil (Anthonomus grandis)
For evaluating control of boll weevil (Anthonomus grandis) the test unit consisted of 96-well-microtiter plates containing an insect diet and 5-10 A. grandis eggs.
(§2) The compounds were formulated using a solution containing 75% v/v water and 25% v/v DMSO. Different concentrations of formulated compounds were sprayed onto the insect diet at 5 μl, using a custom built micro atomizer, at two replications.
After application, microtiter plates were incubated at about 25±1° C. and about 75±5% relative humidity for 5 days. Egg and larval mortality was then visually assessed.

[6] = tested on: Mediterranean Fruitfly (Ceratitis capitata); assay: Mediterranean fruitfly insect diet microtiter test; conditions: 120 h, egg and larval mortality on sprayed insect diet, 5 days, read-out: mortality in comparison with untreated controls
Experimental: B.6 Mediterranean Fruitfly (Ceratitis capitata)
as §2, with “For evaluating control of Mediterranean fruitfly (Ceratitis capitata) the test unit consisted of microtiter plates containing an insect diet and 50-80 C. capitata eggs. The” for “The”
as §1

[7] = tested on: Orchid Thrips (Dichromothrips Corbetti); assay: Orchid thrips floral-immersion test; conditions: dipped orchid petals, adult thrips, 72 hours after treatment, read-out: mortality in comparison with untreated controls
Experimental: B.7 Orchid Thrips (Dichromothrips Corbetti)
Dichromothrips corbetti adults used for bioassay were obtained from a colony maintained continuously under laboratory conditions. For testing purposes, the test compound is diluted in a 1:1 mixture of acetone:water (vol:vol), plus Kinetic HV at a rate of 0.01% v/v.
Thrips potency of each compound was evaluated by using a floral-immersion technique. All petals of individual, intact orchid flowers were dipped into treatment solution and allowed to dry in Petri dishes. Treated petals were placed into individual resealable plastic along with about 20 adult thrips. All test arenas were held under continuous light and a temperature of about 28° C. for duration of the assay. After 3 days, the numbers of live thrips were counted on each petal. The percent mortality was recorded 72 hours after treatment.

[8] = tested on: Rice Green Leafhopper (Nephotettix virescens); assay: Rice green leafhopper sprayed rice seedling test; conditions: sprayed potted rice seedlings, adults, after 72 hours, read-out: mortality in comparison with untreated controls
Experimental: B.8 Rice Green Leafhopper (Nephotettix virescens)
Rice seedlings were cleaned and washed 24 hours before spraying. The active compounds were formulated in 1:1 acetone:water (vol:vol), and 0.01% vol/vol surfactant (Kinetic HV) was added. Potted rice seedlings were sprayed with 5-6 ml test solution, air dried, covered with Mylar cages and inoculated with 10 adults. Treated rice plants were kept at about 28-29° C. and relative humidity of about 50-60%. Percent mortality was recorded after 72 hours.

[9] = tested on: Southern Armyworm (Spodoptera eridania); assay: Southern armyworm sprayed lima bean test; conditions: foliar, 96 h, sprayed lima bean foliage, larvae, 4 days after treatment, read-out: mortality in comparison with untreated controls
Experimental: B.10 Southern Armyworm (Spodoptera eridania)
The active compounds were formulated in cyclohexanone as a 10,000 ppm solution supplied in tubes. The tubes were inserted into an automated electrostatic sprayer equipped with an atomizing nozzle and they served as stock solutions for which lower dilutions were made in 50% acetone:50% water (v/v). A nonionic surfactant (Kinetic®) was included in the solution at a volume of 0.01% (v/v).
Lima bean plants (variety Sieva) were grown 2 plants to a pot and selected for treatment at the 1st true leaf stage. Test solutions were sprayed onto the foliage by an automated electrostatic plant sprayer equipped with an atomizing spray nozzle. The plants were dried in the sprayer fume hood and then removed from the sprayer. Each pot was placed into perforated plastic bags with a zip closure. About 10 to 11 armyworm larvae were placed into the bag and the bags zipped closed. Test plants were maintained in a growth room at about 25° C. and about 20-40% relative humidity for 4 days, avoiding direct exposure to fluorescent light (24 hour photoperiod) to prevent trapping of heat inside the bags. Mortality and reduced feeding were assessed 4 days after treatment, compared to untreated control plants.

O=C(CNC(=O)c1ccc(C2=CSC(c3cc(Cl)cc(Cl)c3)(C(F)(F)F)C2)c2c1CCC2)NCC(F)(F)F (stereo not drawn) [Compound 1-3, 7-[2-(3,5-Dichlorophenyl)-2-(trifluoromethyl)-3H-thiophen-4-yl]-N-[2-oxo-2-(2,2,2-trifluoroethylamino)ethyl]indane-4-carboxamide]
≥ 75%: mortality at 300 ppm [1] | mortality at 2500 ppm [2] | mortality at 2500 ppm [3] | mortality at 2500 ppm [4] | mortality at 2500 ppm [5] | mortality at 2500 ppm [6] | mortality at 300 ppm [7] | mortality at 2500 ppm [8] | mortality at 10 ppm [9]

Source: US10023563B2, “Cyclic compounds substituted by a condensed ring system” (BASF SE, priority 2014, dated 2018)
